Source: PMC3100199 (ACS medicinal chemistry letters, 2011)

Assays:
PKD1 [1] = biological target: T1, PKD1 (Homo sapiens, UniProt Q15139); conditions: PKD; cited from earlier work
T1 sequence (Q15139 1-912): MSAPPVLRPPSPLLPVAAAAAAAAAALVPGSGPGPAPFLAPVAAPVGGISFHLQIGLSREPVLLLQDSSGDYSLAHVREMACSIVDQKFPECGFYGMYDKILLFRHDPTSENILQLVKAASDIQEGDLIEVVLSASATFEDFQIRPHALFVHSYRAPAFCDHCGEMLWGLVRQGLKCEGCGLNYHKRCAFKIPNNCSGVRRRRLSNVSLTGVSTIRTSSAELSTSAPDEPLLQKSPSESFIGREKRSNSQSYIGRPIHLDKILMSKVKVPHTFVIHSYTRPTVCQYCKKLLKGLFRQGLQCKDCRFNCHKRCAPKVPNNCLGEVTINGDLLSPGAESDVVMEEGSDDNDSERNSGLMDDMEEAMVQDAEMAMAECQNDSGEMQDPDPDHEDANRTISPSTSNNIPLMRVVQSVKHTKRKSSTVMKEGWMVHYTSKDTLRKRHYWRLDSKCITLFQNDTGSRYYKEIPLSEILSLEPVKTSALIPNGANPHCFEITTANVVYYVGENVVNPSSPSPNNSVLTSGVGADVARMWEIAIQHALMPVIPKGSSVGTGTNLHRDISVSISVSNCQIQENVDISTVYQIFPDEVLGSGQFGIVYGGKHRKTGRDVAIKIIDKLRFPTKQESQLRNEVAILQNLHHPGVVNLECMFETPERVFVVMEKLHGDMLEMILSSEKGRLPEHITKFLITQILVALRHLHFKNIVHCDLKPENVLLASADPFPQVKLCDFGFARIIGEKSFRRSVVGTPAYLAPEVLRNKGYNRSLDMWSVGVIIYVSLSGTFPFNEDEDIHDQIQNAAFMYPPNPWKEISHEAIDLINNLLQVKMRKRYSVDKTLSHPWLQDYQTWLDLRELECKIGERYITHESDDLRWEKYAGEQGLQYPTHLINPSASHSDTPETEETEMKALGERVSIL

PKCα = PKCα (Homo sapiens, UniProt P17252); assay: Selectivity assay against PKCα; format: biochemical; conditions: selectivity counterscreen
PKCβI = PKCβI (Homo sapiens, UniProt P05771); assay: Selectivity assay against PKCβI; format: biochemical; conditions: selectivity counterscreen
PKCδ = PKCδ (Homo sapiens, UniProt Q05655); assay: Selectivity assay against PKCδ; format: biochemical; conditions: selectivity counterscreen
PKD1 [2] = biological target: T1, PKD1; assay: PKD1 radiometric kinase activity assay; format: biochemical; conditions: ratio of in vitro IC50 vs CID755673
[3] = biological target: T2, PKD1 autophosphorylation at S916 in LNCaP prostate cancer cells (Homo sapiens, UniProt Q15139); assay: Cellular PKD1 autophosphorylation at S916; format: cell-based; conditions: vs CID755673
T2 sequence (Q15139 1-912): T1 sequence (Q15139 1-912)

[4] = in vivo studies; cited from earlier work

Chain of PKCδ (Q05655 whole entry): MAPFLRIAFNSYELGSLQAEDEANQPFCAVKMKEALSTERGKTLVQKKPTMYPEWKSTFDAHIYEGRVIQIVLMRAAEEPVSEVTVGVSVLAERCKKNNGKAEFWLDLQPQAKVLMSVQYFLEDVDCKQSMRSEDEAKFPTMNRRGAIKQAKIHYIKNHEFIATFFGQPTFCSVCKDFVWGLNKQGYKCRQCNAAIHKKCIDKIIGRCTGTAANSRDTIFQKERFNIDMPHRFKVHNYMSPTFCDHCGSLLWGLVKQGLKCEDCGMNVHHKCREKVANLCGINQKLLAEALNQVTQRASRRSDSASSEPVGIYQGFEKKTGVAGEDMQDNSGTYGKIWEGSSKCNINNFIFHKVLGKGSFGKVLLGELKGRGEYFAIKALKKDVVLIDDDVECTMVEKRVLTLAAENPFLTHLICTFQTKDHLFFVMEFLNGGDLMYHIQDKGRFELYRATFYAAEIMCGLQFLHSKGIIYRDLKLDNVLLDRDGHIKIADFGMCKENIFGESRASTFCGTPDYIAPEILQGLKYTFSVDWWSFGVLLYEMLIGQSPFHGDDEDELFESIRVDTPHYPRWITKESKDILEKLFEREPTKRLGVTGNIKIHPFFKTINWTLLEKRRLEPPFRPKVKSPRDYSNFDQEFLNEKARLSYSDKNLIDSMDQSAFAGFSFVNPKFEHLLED
Chain of PKCβI (P05771 whole entry): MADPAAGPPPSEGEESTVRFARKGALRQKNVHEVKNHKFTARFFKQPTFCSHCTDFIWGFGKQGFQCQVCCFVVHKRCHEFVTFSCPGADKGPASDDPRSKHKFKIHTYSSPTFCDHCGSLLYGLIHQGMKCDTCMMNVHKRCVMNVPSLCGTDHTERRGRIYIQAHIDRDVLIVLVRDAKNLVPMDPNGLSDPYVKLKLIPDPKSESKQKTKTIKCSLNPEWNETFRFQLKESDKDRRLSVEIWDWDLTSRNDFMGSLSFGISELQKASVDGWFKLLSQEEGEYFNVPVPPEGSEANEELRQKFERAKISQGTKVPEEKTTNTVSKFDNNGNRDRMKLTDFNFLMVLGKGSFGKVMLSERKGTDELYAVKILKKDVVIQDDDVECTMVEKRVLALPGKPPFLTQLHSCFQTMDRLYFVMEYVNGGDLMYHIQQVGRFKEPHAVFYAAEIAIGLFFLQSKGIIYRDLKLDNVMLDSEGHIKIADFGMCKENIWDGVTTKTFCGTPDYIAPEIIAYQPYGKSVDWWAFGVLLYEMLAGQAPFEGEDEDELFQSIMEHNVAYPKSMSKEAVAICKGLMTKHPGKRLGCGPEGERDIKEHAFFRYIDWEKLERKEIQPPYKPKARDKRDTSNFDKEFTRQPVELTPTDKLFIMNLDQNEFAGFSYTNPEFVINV

Row | SMILES | mode of inhibition (ATP competition) (PKD1 [1]) | activity against PKCα (PKCα) | activity against PKCβI (PKCβI) | activity against PKCδ (PKCδ) | improvement in PKD1 in vitro potency over CID755673 (PKD1 [2]) [fold] | improvement (lowering) of cellular IC50 compared to CID755673 [3] [fold] | plasma half-life [4]
1 | O=C1NCCCc2c1oc1ccc(O)cc21 [CID755673] | not an ATP-competitive inhibitor | – | – | – | – | – | –
2 | [N-]=[N+]=Nc1ccc2sc3c(c2c1)SCCNC3=O [mcf292-08] | – | did not detect significant activities | did not detect significant activities | did not detect significant activities | – | – | –
3 | O=C1NCCCc2c1[nH]c1ccc(O)cc21 [kb-NB123-57] | – | did not detect significant activities | did not detect significant activities | did not detect significant activities | – | – | –
4 | COc1ncc2sc3c(c2n1)SCCNC3=O [kmg-NB4-23] | – | did not detect significant activities | did not detect significant activities | did not detect significant activities | – | – | –
5 | O=C1NCCSc2c1sc1ccc(O)cc21 [kb-NB142-70] | – | – | – | – | ~7 | 5 | short plasma half-life
